The values below come from article PMC10716780, “The multistep oxidation of cholesterol to pregnenolone by human cytochrome P450 11A1 is highly processive” (The Journal of Biological Chemistry, 2023).

SMILES strings stand for the structures. Where “and” joins values, the source holds several entries; their conditions need not be identical. Equal values may be shown once.

The target in this assay is T1, human P450 11A1 (Homo sapiens, UniProt P05108).
T1 sequence (P05108 41-521 limits assumed): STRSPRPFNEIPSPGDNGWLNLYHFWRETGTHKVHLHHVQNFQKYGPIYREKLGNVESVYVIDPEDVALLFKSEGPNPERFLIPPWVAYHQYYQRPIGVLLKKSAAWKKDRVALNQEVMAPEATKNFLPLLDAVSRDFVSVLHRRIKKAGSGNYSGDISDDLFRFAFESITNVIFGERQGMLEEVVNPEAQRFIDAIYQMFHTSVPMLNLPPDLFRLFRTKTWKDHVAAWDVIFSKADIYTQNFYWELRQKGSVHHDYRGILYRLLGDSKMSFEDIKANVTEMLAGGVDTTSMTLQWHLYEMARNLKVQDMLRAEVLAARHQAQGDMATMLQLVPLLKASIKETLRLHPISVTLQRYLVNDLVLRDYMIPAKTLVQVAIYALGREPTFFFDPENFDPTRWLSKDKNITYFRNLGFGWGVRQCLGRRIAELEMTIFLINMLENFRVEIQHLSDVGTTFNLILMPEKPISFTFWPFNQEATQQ
T1 sequence (P00257 59-186 partner): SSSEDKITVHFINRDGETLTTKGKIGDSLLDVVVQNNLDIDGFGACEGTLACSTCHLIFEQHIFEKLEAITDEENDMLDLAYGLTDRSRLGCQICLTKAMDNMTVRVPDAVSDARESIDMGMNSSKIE
The experiment in a line: Steady-state conversion of sterols to pregnenolone by reconstituted P450 11A1 (UPLC-MS of dansyl hydrazone). Also noted: M A S T R S P R P F N E I P S P G D N; Met-Ala (N-terminal start residues in place of the transit peptide and Ile40) (N); made in house; host or cells: E. coli (P450 11A1 in C41(DE3); Adx and AdR in E. coli). The format is biochemical. The note with it: for rate of pregnenolone formation: duplicate, raw data of Fig. 5. On the procedure: Accordingly, all steady-state assays were done, unless otherwise noted, with a P450 11A1:Adx:AdR molar ratio of 1:40:2 (Fig. 2, that is, 0.25 μM P450, 10 μM Adx, and 0.5 μM AdR), in the absence of added lipid or detergent, and with the addition of sterol substrates in HPCD (stock 45% w/v).
As mentioned in the Introduction, many types of assays have been used to monitor the steady-state conversion of cholesterol to pregnenolone ([12], [14], [15], [16], [17], [18], [19], [20], [21]). A reliable and sensitive method was required that could be used for presteady-state reactions and was not reliant on the presence of isotope in cholesterol, in that, we also worked with 22R-OH cholesterol and 20R,22R-(OH)2 cholesterol as substrates. We utilized a method based on our work with P450 17A1 ([41], [42]), in which we derivatized the product pregnenolone as its dansyl hydrazone and separated it by ultra-performance liquid chromatography (UPLC) with detection by positive ion electrospray mass spectrometry (MS). The steroid dehydroepiandosterone (DHEA) was used an internal standard.
Reactions were performed by reconstituting P450 (0.25 μM), AdR (0.5 μM), and Adx (10 μM) on ice for 10 min prior to dilution in potassium Hepes buffer (50 mM, pH 7.4) and H2O and the addition of substrate (sterol, in HPCD (45% w/v)). Sterol dilutions were performed in HPCD to ensure that the HPCD composition was equal throughout all incubations (final 4.5% w/v). The reaction mixture was split between vials (425 μl in each), and reactions were preincubated (37 °C, 5 min) prior to initiation (75 μl) with an NADPH-generating system (0.5 mM NADP^+, 10 mM glucose 6-phosphate, and 2 μg ml^−1 glucose 6-phosphate dehydrogenase) ([61]). Reactions (5 min) were terminated by extraction into CH2Cl2 (2 ml) and transferred to an ice bath. After the experiment was complete, the quenched reactions were subjected to centrifugation (10^3g, 5 min, 23 °C) to separate layers, the organic (bottom) layer of each sample was removed (1.6 ml) to fresh glass vials, and the samples were brought to dryness under a stream of nitrogen.
Steroid extracts were subsequently derivatized with dansylhydrazine and analyzed as described previously ([42]). Briefly, the dried residue was resuspended (200 μl) in C2H5OH (fortified with 0.1% v/v CF3CO2H, as the derivatization reaction is H^+-catalyzed) and mixed with a vortex device. Samples were transferred to 1.5 ml amber glass vials, solutions of dansylhydrazine (10 mM) and DHEA, 10 μM, as internal standard) were added, and vials were capped, mixed with a vortex device, and incubated in the dark overnight (∼16 h, 23 °C). The derivatization reaction was quenched with acetone […], briefly incubated in the dark (∼30 min, 23 °C), and was then neutralized with base (250 μl of 0.5 M NaOH) and extracted into CH2Cl2 (1 ml). The samples were mixed with a vortex device and the organic (bottom) layer was removed (0.8 ml) to clean amber vials. Solvent was again removed under nitrogen, and the dried residue was dissolved in a mobile phase (100 μl) of 0.1% CF3CO2H in aqueous CH3CN (50%, v/v) for analysis.
Samples were injected (10 μl, held at 25 °C) on a 2.1 mm × 50 mm (1.7 μm) Acquity BEH octadecylsilane (C18) column (held at 40 °C) using a Waters Acquity UPLC with a flow rate of 0.2 ml min^−1 and a gradient mobile phase of (A) 0.1% aqueous HCO2H and (B) CH3CN as follows (all %B, v/v): 0 min, 40%; 0.5 min, 40%; 8 min, 100%; 8.5 min, 95%; 9 min, 100%; 9.1 min, 40%; and 10 min, 40%.

The mark [1] stands for this setting: 0.25 μM P450, 0.5 μM AdR, 10 μM Adx, 37 °C.

`CC(C)CCC[C@@H](C)[C@H]1CC[C@H]2[C@@H]3CC=C4C[C@@H](O)CC[C@]4(C)[C@H]3CC[C@]12C` [Cholesterol]: the Km under setting [1] turned out to be 38 ± 6 µM. Besides, under setting [1], the kcat is 0.115 ± 0.0083 s⁻¹. Moreover, the “kcat (conversion of sterol to pregnenolone)” value under setting [1] was 0.12 ± 0.01 s⁻¹ and the “kcat (conversion of sterol to pregnenolone)” value (0.25 μM P450, 0.5 μM AdR, 10 μM Adx, 37 °C, listed as cholesterol) turned out to be 0.12 s⁻¹. In addition, the “kcat for conversion to pregnenolone” value (40-fold excess Adx) is recorded as 6.9 nmol product formed min^−1 (nmol P450)^−1. Moreover, the “rate of pregnenolone formation” value reads like this: (substrate 7.5 µM) 1.32 min⁻¹ and 1.18 min⁻¹; (substrate 15 µM) 1.88 min⁻¹ and 1.72 min⁻¹; (substrate 20 µM) 2.38 min⁻¹ and 2.20 min⁻¹; (substrate 30 µM) 2.47 min⁻¹ and 2.46 min⁻¹; (substrate 40 µM) 3.96 min⁻¹ and 3.88 min⁻¹; (substrate 50 µM) 4.06 min⁻¹ and 4.00 min⁻¹. The “rate of pregnenolone formation” value was 4.99 min⁻¹ and 4.93 min⁻¹ (substrate 75 µM); 5.93 min⁻¹ and 4.92 min⁻¹ (substrate 100 µM); 4.83 min⁻¹ and 5.08 min⁻¹ (substrate 150 µM).

As usually defined, the Km is the concentration of substrate that gives half-maximal velocity. For orientation: kcat means the maximal rate divided by the concentration of active sites.
